We go through 22 compounds from patent publication US11072598B2, “Somatostatin modulators and uses thereof” (CRINETICS PHARMACEUTICALS, INC., priority 2017, dated 2021).

As usually defined, the EC50 is the concentration needed to bring the measured effect to its halfway point.

Where only a bound is given, the exact number is not on record here.

For assay [1], the target named is T1, human somatostatin receptor subtype 2 (Homo sapiens, UniProt P30874).
T1 construct: expressed in transfected cells
The assay can be described thus: cAMP functional assay for SSTR2 agonists. It counts as cell-based. The following applies: inhibition of cAMP activities via human SST2 receptor (SSTR2), CHO-K1 cells; read-out: EC50. In a few lines:
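CHO-K1 cells stably expressing human SSTR2 were treated for 20 min at 37 °C with compound plus NKH477 (added as 1.6 μM) in HBSS with IBMX. Intracellular cAMP was measured by HTRF against a standard curve. EC50 values came from concentration-response curves.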

Another assay deals with T2, hSSTR4 (Homo sapiens, UniProt P31391).
T2 construct: expressed in transfected cells
The assay can be described thus: inhibition of cAMP via hSSTR4. It counts as cell-based. The following applies: selectivity for inhibition of cAMP via hSSTR2 vs. hSSTR4. An excerpt:
General overview: All five SSTR subtypes are Gi coupled G-protein coupled receptors (GPCRs) that lead to decreases in intracellular cyclic AMP (cAMP) when activated by an agonist. Therefore, measurement of intracellular cAMP levels can be used to assess whether compounds of the invention are agonists of SSTR subtypes (John Kelly, Troy Stevens, W. Joseph Thompson, and Roland Seifert, Current Protocols in Pharmacology, 2005, 2.2.1-2.2). One example of an intracellular cAMP assay is described below. cAMP assay protocol:
Four days prior to the assay, 5,000 Chinese hamster ovary cells (CHO-K1, ATCC #CCL-61) stably expressing the human somatostatin receptor subtype 2 are plated in each well of a 96-well tissue culture-treated plate in Ham's F12 growth media (ThermoFisher #10-080-CM) supplemented with 10% donor bovine serum (Gemini Bio-Products #100-506), 100 U/mL penicillin; 100 ug/mL streptomycin; 2 mM L-glutamine (Gemini Bio-Products #400-110) and 0.2 mg/mL hygromycin B (GoldBio #31282-04-9). The cells are cultured at 37° C., 5% CO2 and 95% humidity. On the day of the assay, the media is aspirated and the cells are treated with 50 μL of 1.6 μM NKH477 (Sigma #N3290) plus various dilutions of compounds of the invention in assay buffer [1× Hank's Balanced Salt Solution (ThermoFisher #SH3058802), 0.5 mM HEPES pH 7.4, 0.1% bovine serum albumin, 0.2 mM 3-Isobutyl-1-methylxanthine (IBMX, VWR #200002-790)]. The cells are incubated for 20 minutes at 37° C. (the final concentration of the compounds of the invention are typically 0-10,000 nM). The cells are treated with 50 μL of lysis buffer (HRTF cAMP kit, Cisbio). The lysate is transferred to 384-well plates and cAMP detection and visualization antibodies are added and incubated for 1-24 hours at room temperature. The time-resolved fluorescent signal is read with a Tecan M1000Pro multiplate reader. The intracellular cAMP concentrations are calculated by regression to a standard curve and are plotted vs. the concentration of the compounds of the invention and the EC50 of the compounds are calculated using standard methods. All data manipluations are in GraphPad Prism v6.

T2 sequence (P31391 whole entry): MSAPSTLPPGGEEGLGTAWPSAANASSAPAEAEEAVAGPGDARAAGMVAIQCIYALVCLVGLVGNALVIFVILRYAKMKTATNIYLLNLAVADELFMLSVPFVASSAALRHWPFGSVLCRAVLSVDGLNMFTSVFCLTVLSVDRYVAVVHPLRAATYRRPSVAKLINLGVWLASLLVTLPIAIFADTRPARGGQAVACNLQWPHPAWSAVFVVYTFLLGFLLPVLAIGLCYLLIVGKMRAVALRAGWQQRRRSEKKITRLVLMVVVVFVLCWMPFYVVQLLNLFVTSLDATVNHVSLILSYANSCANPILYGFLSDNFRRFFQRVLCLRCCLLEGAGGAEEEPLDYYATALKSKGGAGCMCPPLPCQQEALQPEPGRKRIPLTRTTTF
T1 sequence (P30874 whole entry): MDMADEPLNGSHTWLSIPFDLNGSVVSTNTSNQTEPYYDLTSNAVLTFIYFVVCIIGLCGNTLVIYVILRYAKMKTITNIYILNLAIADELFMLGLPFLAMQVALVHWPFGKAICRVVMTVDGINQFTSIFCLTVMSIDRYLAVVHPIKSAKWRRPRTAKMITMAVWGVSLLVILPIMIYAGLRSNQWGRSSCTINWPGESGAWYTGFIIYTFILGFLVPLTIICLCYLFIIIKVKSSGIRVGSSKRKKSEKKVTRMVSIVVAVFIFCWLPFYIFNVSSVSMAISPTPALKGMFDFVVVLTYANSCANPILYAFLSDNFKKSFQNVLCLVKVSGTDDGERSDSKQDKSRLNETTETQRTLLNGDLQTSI

For `Cc1cc(F)cc(-c2cnc(N)c(-c3nc4cc(F)c(F)cc4[nH]3)c2N2CCC(N)CC2)c1` [Compound 1-3, 4-(4-aminopiperidin-1-yl)-3-(5,6-difluoro-1H-1,3-benzodiazol-2-yl)-5-(3-fluoro-5-methylphenyl)pyridin-2-amine], the EC50 in assay [1] was less than 0.01 µM. Also, the “hSST4/hSST2 (ratio)” value on hSSTR4 is “b (between 15 and 50)”.
Regarding `CCn1c(-c2c(N)ncc(-c3cc(C)cc(F)c3)c2N2CCC(N)CC2)nc2cc(F)c(F)cc21` [Compound 1-5, 4-(4-aminopiperidin-1-yl)-3-(1-ethyl-5,6-difluoro-1H-1,3-benzodiazol-2-yl)-5-(3-fluoro-5-methylphenyl)pyridin-2-amine], the EC50 in assay [1] was less than 0.01 µM. Moreover, the “hSST4/hSST2 (ratio)” value on hSSTR4 is “b (between 15 and 50)”.
On to `COc1ccc2[nH]c(-c3c(N)ncc(-c4cc(C)cc(F)c4)c3N3CCC(N)CC3)nc2c1` [Compound 1-8, 4-(4-aminopiperidin-1-yl)-5-(3-fluoro-5-methylphenyl)-3-(5-methoxy-1H-1,3-benzodiazol-2-yl)pyridin-2-amine], for which the EC50 in assay [1] was less than 0.01 µM. Besides, the “hSST4/hSST2 (ratio)” value at hSSTR4 is “b (between 15 and 50)”.
For the compound `Cc1cc(F)cc(-c2cnc(N)c(-c3nc4cccc(C)c4[nH]3)c2N2CCC(N)CC2)c1` [Compound 1-10, 4-(4-aminopiperidin-1-yl)-5-(3-fluoro-5-methylphenyl)-3-(7-methyl-1H-1,3-benzodiazol-2-yl)pyridin-2-amine], the EC50 in assay [1] is less than 0.01 µM. Moreover, on hSSTR4, the “hSST4/hSST2 (ratio)” value was “c (between 2.5 and 15)”.
Consider `Cc1cc(F)cc(-c2cnc(N)c(-c3nc4cc(OC(F)(F)F)ccc4[nH]3)c2N2CCC(N)CC2)c1` [Compound 1-14, 4-(4-aminopiperidin-1-yl)-5-(3-fluoro-5-methylphenyl)-3-[5-(trifluoromethoxy)-1H-1,3-benzodiazol-2-yl]pyridin-2-amine], for which the EC50 in assay [1] is less than 0.01 µM. Besides, the “hSST4/hSST2 (ratio)” value at hSSTR4 was “a (above 50)”.
`CNc1ncc(-c2cc(C)cc(F)c2)c(N2CCC(N)CC2)c1-c1nc2cc(Cl)ccc2[nH]1` [Compound 1-28, 4-(4-aminopiperidin-1-yl)-3-(5-chloro-1H-1,3-benzodiazol-2-yl)-5-(3-fluoro-5-methylphenyl)-N-methylpyridin-2-amine]: the EC50 in assay [1] is less than 0.01 µM. Further, the “hSST4/hSST2 (ratio)” value at hSSTR4 is given as “a (above 50)”.
Take `CCNc1ncc(-c2cc(C)cc(F)c2)c(N2CCC(N)CC2)c1-c1nc2cc(Cl)ccc2[nH]1` [Compound 1-30, 4-(4-aminopiperidin-1-yl)-3-(5-chloro-1H-1,3-benzodiazol-2-yl)-N-ethyl-5-(3-fluoro-5-methylphenyl)pyridin-2-amine]: the EC50 in assay [1] is less than 0.01 µM. Further, the “hSST4/hSST2 (ratio)” value at hSSTR4 was “a (above 50)”.
Consider `CCNc1ncc(-c2cc(C)cc(F)c2)c(N2CCC(N)CC2)c1-c1nc2cc(F)cc(F)c2[nH]1` [Compound 1-49, 4-(4-aminopiperidin-1-yl)-3-(5,7-difluoro-1H-1,3-benzodiazol-2-yl)-N-ethyl-5-(3-fluoro-5-methylphenyl)pyridin-2-amine], for which the EC50 in assay [1] was less than 0.01 µM. Moreover, at hSSTR4, the “hSST4/hSST2 (ratio)” value is “a (above 50)”.
Regarding `CCNc1ncc(-c2cc(C)cc(F)c2)c(N2CCC(N)CC2)c1-c1nc2cc(F)c(F)cc2[nH]1` [Compound 1-50, 4-(4-aminopiperidin-1-yl)-3-(5,6-difluoro-1H-1,3-benzodiazol-2-yl)-N-ethyl-5-(3-fluoro-5-methylphenyl)pyridin-2-amine], in assay [1], the EC50 was less than 0.01 µM. Also, the “hSST4/hSST2 (ratio)” value at hSSTR4 is “a (above 50)”.
In the same order, the values of `Cc1cc(F)cc(-c2cnc(N)c(-c3nc4cc(Cl)cc(F)c4[nH]3)c2N2CCC(N)CC2)c1` [Compound 1-54, 4-(4-aminopiperidin-1-yl)-3-(5-chloro-7-fluoro-1H-1,3-benzodiazol-2-yl)-5-(3-fluoro-5-methylphenyl)pyridin-2-amine] are less than 0.01 µM and “a (above 50)”.
As to `CNc1ncc(-c2cc(C)cc(F)c2)c(N2CCC(N)CC2)c1-c1nc2cc(F)c(F)cc2[nH]1` [Compound 1-55, 4-(4-aminopiperidin-1-yl)-3-(5,6-difluoro-1H-1,3-benzodiazol-2-yl)-5-(3-fluoro-5-methylphenyl)-N-methylpyridin-2-amine], the EC50 in assay [1] is less than 0.01 µM. The “hSST4/hSST2 (ratio)” value at hSSTR4 is “a (above 50)”.
Take `COCCNc1ncc(-c2cc(C)cc(F)c2)c(N2CCC(N)CC2)c1-c1nc2c(F)cc(F)cc2[nH]1` [Compound 1-56]: the EC50 in assay [1] is less than 0.01 µM. Moreover, at hSSTR4, the “hSST4/hSST2 (ratio)” value was “a (above 50)”.
`Cc1cc(F)cc(-c2cnc(N)c(-c3nc4cc(F)c(F)cc4n3C)c2N2CCC(N)CC2)c1` [Compound 1-57, 4-(4-aminopiperidin-1-yl)-3-(5,6-difluoro-1-methyl-1H-1,3-benzodiazol-2-yl)-5-(3-fluoro-5-methylphenyl)pyridin-2-amine]: the EC50 in assay [1] was less than 0.01 µM. Besides, the “hSST4/hSST2 (ratio)” value at hSSTR4 is reported as “a (above 50)”.
With `COc1cc(F)cc2[nH]c(-c3c(N)ncc(-c4cc(C)cc(F)c4)c3N3CCC(N)CC3)nc12` [Compound 1-58, 4-(4-aminopiperidin-1-yl)-3-(6-fluoro-4-methoxy-1H-1,3-benzodiazol-2-yl)-5-(3-fluoro-5-methylphenyl)pyridin-2-amine], in assay [1], the EC50 was less than 0.01 µM. The “hSST4/hSST2 (ratio)” value on hSSTR4 is “c (between 2.5 and 15)”.
In the case of `COc1cc(F)c2nc(-c3c(N)ncc(-c4cc(C)cc(F)c4)c3N3CCC(N)CC3)[nH]c2c1` [Compound 1-59, 4-(4-aminopiperidin-1-yl)-5-(3-fluoro-5-methylphenyl)-3-(4-fluoro-6-methoxy-1H-1,3-benzodiazol-2-yl)pyridin-2-amine], in assay [1], the EC50 is less than 0.01 µM. On hSSTR4, the “hSST4/hSST2 (ratio)” value is “b (between 15 and 50)”.
Take `CNc1ncc(-c2cc(C)cc(F)c2)c(N2CCC(N)CC2)c1-c1nc2cccc(OC)c2[nH]1` [Compound 1-71, 4-(4-aminopiperidin-1-yl)-5-(3-fluoro-5-methylphenyl)-3-(7-methoxy-1H-1,3-benzodiazol-2-yl)-N-methylpyridin-2-amine]: in assay [1], the EC50 is less than 0.01 µM. Moreover, on hSSTR4, the “hSST4/hSST2 (ratio)” value is “c (between 2.5 and 15)”.
In the case of `Cc1cc(F)cc(-c2cnc(N)c(-c3nc4cc(F)cc(OCC#N)c4[nH]3)c2N2CCC(N)CC2)c1` [Compound 1-74, 2-({2-[2-amino-4-(4-aminopiperidin-1-yl)-5-(3-fluoro-5-methylphenyl)pyridin-3-yl]-5-fluoro-1H-1,3-benzodiazol-7-yl}oxy)acetonitrile], the EC50 in assay [1] was less than 0.01 µM. Also, the “hSST4/hSST2 (ratio)” value on hSSTR4 is “c (between 2.5 and 15)”.
On to `CNc1ncc(-c2cc(C)cc(F)c2)c(N2CCC(N)CC2)c1-c1nc2cc(Cl)cc(F)c2[nH]1` [Compound 1-75, 4-(4-aminopiperidin-1-yl)-3-(5-chloro-7-fluoro-1H-1,3-benzodiazol-2-yl)-5-(3-fluoro-5-methylphenyl)-N-methylpyridin-2-amine], for which the EC50 in assay [1] is less than 0.01 µM. The “hSST4/hSST2 (ratio)” value on hSSTR4 was “a (above 50)”.
In the case of `COc1ncc(-c2cc(C)cc(F)c2)c(N2CCC(N)CC2)c1-c1nc2cc(F)ccc2[nH]1` [Compound 2-1, 1-[3-(5-fluoro-1H-1,3-benzodiazol-2-yl)-5-(3-fluoro-5-methylphenyl)-2-methoxypyridin-4-yl]piperidin-4-amine], the EC50 in assay [1] is less than 0.01 µM. For the same compound, on hSSTR4, the “hSST4/hSST2 (ratio)” value is given as “a (above 50)”.
Take `COc1ncc(-c2cc(C)cc(F)c2)c(N2CCC(N)CC2)c1-c1nc2cc(Cl)ccc2[nH]1` [Compound 2-2, 1-[3-(5-chloro-1H-1,3-benzodiazol-2-yl)-5-(3-fluoro-5-methylphenyl)-2-methoxypyridin-4-yl]piperidin-4-amine]: the EC50 in assay [1] was less than 0.01 µM. The “hSST4/hSST2 (ratio)” value at hSSTR4 is “a (above 50)”.
For `COc1ccc2[nH]c(-c3c(OC)ncc(-c4cc(C)cc(F)c4)c3N3CCC(N)CC3)nc2c1` [Compound 2-3, 1-[5-(3-fluoro-5-methylphenyl)-2-methoxy-3-(5-methoxy-1H-1,3-benzodiazol-2-yl)pyridin-4-yl]piperidin-4-amine] the same measures were less than 0.01 µM and “a (above 50)”.
Turning to `COc1ncc(-c2cc(C)cc(F)c2)c(N2CCC(N)CC2)c1-c1nc2cc(F)cc(F)c2[nH]1` [Compound 2-5, 1-[3-(5,7-difluoro-1H-1,3-benzodiazol-2-yl)-5-(3-fluoro-5-methylphenyl)-2-methoxypyridin-4-yl]piperidin-4-amine], in assay [1], the EC50 was less than 0.01 µM. In addition, on hSSTR4, the “hSST4/hSST2 (ratio)” value is “a (above 50)”.
